The source of these data is patent US8604034B2, “Substituted imidazo[1,2-α]pyrrolo[1,2-d]pyrazines for treating respiratory syncytial virus (RSV) infections” (Biota Scientific Management Pty Ltd., priority 2010, dated 2013).

Read-outs that look alike come from different tables or passages of the source. Where only a bound is given, the exact number is not on record here.

The test system of the assay is RSV A2. Put plainly: RSV antiviral cytopathic effect (CPE) assay. Format: cell-based. To be noted: human respiratory syncytial virus, HEp-2, 120 h, HEp2 cells infected with RSV A2 (moi ~0.01), 5 days, MTT readout. The method, then: Compounds of the invention were tested for their antiviral activity against respiratory syncytial virus. Cytopathic effect (CPE) assays were performed essentially as described in the literature (see for example Watanabe et al, 1994, J. Virological Methods, 48:257). Serial dilutions of the test compounds were made in 96 well plates. HEp2 cells (1.0×10^4 cells/well) were infected with RSV at a low multiplicity of infection (e.g. RSV A2 at an moi of ˜0.01) and added to plates to assess antiviral activity. Uninfected HEp2 cells were used to assess compound cytotoxicity. Assays were incubated for 5 days at 37° C. in a 5% CO2 atmosphere. The extent of CPE was determined via metabolism of the vital dye 3-(4,5-dimethylthiaxol-2-yl)-2,5-diphenyltetrazolium bromide (MTT). MTT (1 mg/ml) was added to each well and plates incubated for 2 hours incubation at 37° C. Wells were aspirated, iso-propanol (200 μL) was added and absorbance values read at 540/650 nm. Compound concentrations that inhibited CPE by 50% (EC50) and developed cytotoxicity (CC50) were calculated using non-linear regression analysis.
Representative mean EC50 values obtained are also provided. In the inventors' experience, replicate EC50 values usually fall within three standard deviations of the mean.
On the technique in general: Protection from cytopathic effect is a common read-out in antiviral testing.

[1] abbreviates: read-out: Activity Range (RSV A2 EC50).
Setting [2] is: mean EC50, read-out: RSV A2 EC50.

Consider `Cc1ccc(C23Cn4cc(Br)cc4C(=O)N2CCN3)cc1` (stereo not drawn) [Compound 86], for which, under setting [1], the EC50 (as a rule, the concentration giving half of the maximal effect) is above 10 µM.

With `Cc1nocc1C(=O)N1CCN2C(=O)c3ccc(-c4cccnc4)n3CC12c1ccc(Cl)cc1` (stereo not drawn) [Compound 33], the EC50 is 0.5 to 10 µM under setting [1] and 3.1 µM under setting [2].

Consider `Cc1ccc(C23Cn4cc(-c5ccncc5)cc4C(=O)N2CCN3C(=O)c2conc2C)cn1` (stereo not drawn) [Compound 135], for which the EC50 is, setting by setting: under setting [1], below 0.049 µM; under setting [2], 0.0091 µM.

Turning to `Cc1nocc1C(=O)N1CCN2C(=O)c3cccn3CC12c1cccc(F)c1` (stereo not drawn) [Compound 5], the EC50 is below 0.049 µM under setting [1] and 0.034 µM under setting [2].

Turning to `Cc1cc(C23Cn4cccc4C(=O)N2CCN3C(=O)c2conc2C)ccn1` (stereo not drawn) [Compound 119], the EC50 was 0.05 to 0.099 µM under setting [1] and 0.096 µM under setting [2].

Turning to `Cc1nocc1C(=O)N1CCN2C(=O)c3cccn3CC12c1ccc(C#N)cc1` (stereo not drawn) [Compound 37, 4-{1-[(3-methyl-1,2-oxazol-4-yl)carbonyl]-5-oxo-2,3-dihydro-1H,5H-imidazo[1,2-a]pyrrolo[1,2-d]pyrazin-10a(10H)-yl}benzonitrile], the EC50 is, setting by setting: under setting [1], 0.1 to 0.499 µM; under setting [2], 0.12 µM.

With `COc1ccc(C23Cn4cccc4C(=O)N2CCN3C(=O)c2cccnc2)cc1` (stereo not drawn) [Compound 71], the EC50 by setting is: under setting [1], above 10 µM; under setting [2], 11 µM.

In the case of `COc1ccc(C23Cn4cccc4C(=O)N2CCN3C(=O)c2conc2C(C)C)cc1` (stereo not drawn) [Compound 68], the EC50 is 0.05 to 0.099 µM under setting [1] and 0.053 µM under setting [2].

As to `COc1ccc(C23Cn4cc(-c5nnnn5C)cc4C(=O)N2CCN3C(=O)c2conc2C)cc1` (stereo not drawn) [Compound 145, 10a-(4-methoxyphenyl)-1-[(3-methyl-1,2-oxazol-4-yl)carbonyl]-7-(1-methyl-1H-tetrazol-5-yl)-2,3,10,10a-tetrahydro-1H,5H-imidazo[1,2-a]pyrrolo[1,2-d]pyrazin-5-one], the EC50 under setting [1] was 0.5 to 10 µM and the EC50 under setting [2] was found to be 3.7 µM.

Consider `Cc1nocc1C(=O)N1CCN2C(=O)c3c(C)ncn3CC12c1ccc(Cl)cc1` (stereo not drawn) [Compound 12], for which the EC50 under setting [1] was in the range of 0.5 to 10 µM and the EC50 under setting [2] amounted to 7.5 µM.

Turning to `Cc1nocc1C(=O)N1CCN2C(=O)c3cc(CN(C)C)cn3CC12c1ccc(Cl)cc1` (stereo not drawn) [Compound 27], the EC50 was 0.5 to 10 µM under setting [1] and 9.5 µM under setting [2].

Turning to `Cc1ccc(C23Cn4cc(-c5ccccn5)cc4C(=O)N2CCN3C(=O)c2conc2C)cc1` (stereo not drawn) [Compound 93, 1-[(3-methyl-1,2-oxazol-4-yl)carbonyl]-10a-(4-methylphenyl)-7-(pyridin-2-yl)-2,3,10,10a-tetrahydro-1H,5H-imidazo[1,2-a]pyrrolo[1,2-d]pyrazin-5-one], the EC50 by setting is: under setting [1], below 0.049 µM; under setting [2], 0.0082 µM.

As for `COc1ccc(C23Cn4cc(-c5ccncc5)cc4C(=O)N2CCN3C(=O)c2conc2C)cc1` (stereo not drawn) [Compound 84], the EC50 runs as follows: under setting [1], below 0.049 µM; under setting [2], 0.018 µM.

In the case of `COc1ccc(C23Cn4cccc4C(=O)N2CCN3C(=O)c2cnoc2)cc1` (stereo not drawn) [Compound 51], the EC50 is, setting by setting: under setting [1], 0.5 to 10 µM; under setting [2], 0.7 µM.

With `Cc1nocc1C(=O)N1CCN2C(=O)c3cccn3CC12c1cccs1` (stereo not drawn) [Compound 74], the EC50 under setting [1] lay within 0.1 to 0.499 µM and the EC50 under setting [2] was 0.22 µM.

In the case of `COc1ccc(C23Cn4cccc4C(=O)N2CCN3C(=O)c2conc2C)cn1` (stereo not drawn) [Compound 58], the EC50 is, setting by setting: under setting [1], below 0.049 µM; under setting [2], 0.049 µM.

`Cc1nocc1C(=O)N1CCN2C(=O)c3cccn3CC12c1ccc(Cl)cc1` (stereo not drawn) [Compound 4]: the EC50 is below 0.049 µM under setting [1] and 0.019 µM under setting [2].

Turning to `Cc1ccc(C23Cn4cccc4C(=O)N2CCN3C(=O)c2cnoc2C)cc1F` (stereo not drawn) [Compound 14], the EC50 is, setting by setting: under setting [1], 0.05 to 0.099 µM; under setting [2], 0.094 µM.

Regarding `Cc1nocc1C(=O)N1CCN2C(=O)c3cc(-c4cccn4C)nn3CC12c1ccc(Cl)cc1` (stereo not drawn) [Compound 140], the EC50 is 0.5 to 10 µM under setting [1] and 0.55 µM under setting [2].

On to `COc1ccc(C23Cn4cccc4C(=O)N2CCN3C(=O)c2ccnn2C)cc1` (stereo not drawn) [Compound 61], for which the EC50 is 0.5 to 10 µM under setting [1] and 0.98 µM under setting [2].

As for `Cc1nocc1C(=O)N1CCN2C(=O)c3cc(-c4cnn(C)c4)cn3CC12c1ccc(Cl)cc1` (stereo not drawn) [Compound 31], the EC50 is, setting by setting: under setting [1], below 0.049 µM; under setting [2], 0.0076 µM.

As for `Cc1nocc1C(=O)N1CCN2C(=O)c3cccn3CC12c1cccnc1` (stereo not drawn) [Compound 101, 1-[(3-methyl-1,2-oxazol-4-yl)carbonyl]-10a-(pyridin-3-yl)-2,3,10,10a-tetrahydro-1H,5H-imidazo[1,2-a]pyrrolo[1,2-d]pyrazin-5-one], the EC50 by setting is: under setting [1], 0.5 to 10 µM; under setting [2], 0.73 µM.

With `O=C1c2cc(Br)cn2CC2(c3ccc(F)cc3)NCCN12` (stereo not drawn) [Compound 85], the concentration for a half-maximal effect (EC50) under setting [1] was above 10 µM.

In the case of `COc1ccc(C23Cn4cccc4C(=O)N2CCN3C(=O)c2c(C)noc2C)cc1` (stereo not drawn) [Compound 53], the EC50 is 0.1 to 0.499 µM under setting [1] and 0.26 µM under setting [2].

With `Cc1ccc(C23Cn4cccc4C(=O)N2CCN3C(=O)c2conc2C)nc1` (stereo not drawn) [Compound 104], the EC50 was below 0.049 µM under setting [1] and 0.027 µM under setting [2].

Consider `Cc1ccc(C23Cn4cc(-c5ccccn5)cc4C(=O)N2CCN3C(=O)c2conc2C)cn1` (stereo not drawn) [Compound 127], for which the concentration for a half-maximal effect (EC50) runs as follows: under setting [1], below 0.049 µM; under setting [2], 0.027 µM.

In the case of `COc1ccc(C23Cn4cc(-c5ccc(C(=O)O)cc5)cc4C(=O)N2CCN3C(=O)c2conc2C)cc1` (stereo not drawn) [Compound 100], the EC50 is 0.5 to 10 µM under setting [1] and 8 µM under setting [2].

Consider `COc1ccc(C23Cn4cccc4C(=O)N2CCN3C(=O)NCc2ccco2)cc1` (stereo not drawn) [Compound 130], for which the EC50 under setting [1] is above 10 µM.

`COc1ccc(C23Cn4nc(-c5ccccn5)cc4C(=O)N2CCN3C(=O)c2conc2C)cc1` (stereo not drawn) [Compound 138]: the EC50 is 0.5 to 10 µM under setting [1] and 4.2 µM under setting [2].

For the compound `COc1ccc(C23Cn4cccc4C(=O)N2CCN3C(=O)c2ccsc2)cc1` (stereo not drawn) [Compound 137], the EC50 reads like this: under setting [1], 0.5 to 10 µM; under setting [2], 6.6 µM.

Regarding `COc1ccc(C23Cn4cc(-n5ccnn5)cc4C(=O)N2CCN3C(=O)c2conc2C)cc1` (stereo not drawn) [Compound 113, 10a-(4-methoxyphenyl)-1-[(3-methyl-1,2-oxazol-4-yl)carbonyl]-7-(1H-1,2,3-triazol-1-yl)-2,3,10,10a-tetrahydro-1H,5H-imidazo[1,2-a]pyrrolo[1,2-d]pyrazin-5-one], the EC50 is 0.1 to 0.499 µM under setting [1] and 0.32 µM under setting [2].

As for `COc1ccc(C23Cn4cccc4C(=O)N2CCN3C(=O)c2cocn2)cc1` (stereo not drawn) [Compound 8], the EC50 was 0.5 to 10 µM under setting [1] and 1.8 µM under setting [2].

For the compound `Cc1nocc1C(=O)N1CCN2C(=O)c3cccn3CC12c1ccc[n+]([O-])c1` (stereo not drawn) [Compound 78, 1-[(3-methyl-1,2-oxazol-4-yl)carbonyl]-10a-(1-oxidopyridin-3-yl)-2,3,10,10a-tetrahydro-1H,5H-imidazo[1,2-a]pyrrolo[1,2-d]pyrazin-5-one], the EC50 was 0.5 to 10 µM under setting [1] and 5.8 µM under setting [2].

Regarding `COc1ccc(C23Cn4cccc4C(=O)N2CCN3C(=O)c2conc2C)nc1` (stereo not drawn) [Compound 115], the EC50 is 0.1 to 0.499 µM under setting [1] and 0.23 µM under setting [2].

Regarding `Cc1ccc(C23Cn4cc(Br)cc4C(=O)N2CCN3C(=O)c2conc2C)nc1` (stereo not drawn) [Compound 117], the EC50 is 0.5 to 10 µM under setting [1] and 0.88 µM under setting [2].

For `O=C(NCCc1ccccc1)N1CCN2C(=O)c3cccn3CC12c1ccc(Cl)cc1` (stereo not drawn) [Compound 48], the EC50 was 0.5 to 10 µM under setting [1] and 1.3 µM under setting [2].

`Cc1nocc1C(=O)N1CCN2C(=O)c3cc(CO)cn3CC12c1ccc(Cl)cc1` (stereo not drawn) [Compound 29]: the EC50 was 0.5 to 10 µM under setting [1] and 1 µM under setting [2].

As for `Cn1cc(C(=O)N2CCN3C(=O)c4cccn4CC23c2ccc(Cl)cc2)c(C(F)(F)F)n1` (stereo not drawn) [Compound 17], the EC50 runs as follows: under setting [1], 0.5 to 10 µM; under setting [2], 0.86 µM.

With `Cc1nocc1C(=O)N1CCN2C(=O)c3cccc(=O)n3CC12c1ccc(Cl)cc1` (stereo not drawn) [Compound 39, 11a-(4-chlorophenyl)-1-[(3-methyl-1,2-oxazol-4-yl)carbonyl]-2,3,11,11a-tetrahydro-1H-imidazo[1,2-a]pyrido[1,2-d]pyrazine-5,9-dione], the 50% effective concentration (EC50) by setting is: under setting [1], below 0.049 µM; under setting [2], 0.015 µM.

Turning to `COc1ccc(C23Cn4cc(-c5cnccc5C)cc4C(=O)N2CCN3C(=O)c2conc2C)cc1` (stereo not drawn) [Compound 92], the EC50 under setting [1] is above 10 µM.

For `CC(=O)c1cc2n(c1)CC1(c3ccc(Cl)cc3)N(C(=O)c3cnoc3C)CCN1C2=O` (stereo not drawn) [Compound 24, 7-acetyl-10a-(4-chlorophenyl)-1-[(5-methyl-1,2-oxazol-4-yl)carbonyl]-2,3,10,10a-tetrahydro-1H,5H-imidazo[1,2-a]pyrrolo[1,2-d]pyrazin-5-one], the EC50 under setting [1] is above 10 µM.

As to `Cc1nocc1C(=O)N1CCN2C(=O)c3cccn3CC12c1ccc(O)cc1` (stereo not drawn) [Compound 69], the EC50 is 0.1 to 0.499 µM under setting [1] and 0.16 µM under setting [2].

As for `Cc1nocc1C(=O)N1CCN2C(=O)c3cccn3CC12c1ccc(C(F)(F)F)cn1` (stereo not drawn) [Compound 116, 1-[(3-methyl-1,2-oxazol-4-yl)carbonyl]-10a-[5-(trifluoromethyl)pyridin-2-yl]-2,3,10,10a-tetrahydro-1H,5H-imidazo[1,2-a]pyrrolo[1,2-d]pyrazin-5-one], the EC50 reads like this: under setting [1], 0.05 to 0.099 µM; under setting [2], 0.059 µM.
